Data from patent US11795381B2, “Using synthetic acid compositions as alternatives to conventional acids in the oil and gas industry” (priority 2016, dated 2023).
Counter-ions that a name gives are not always drawn.

Columns and labels:
[1] = Stability of urea on exposure to higher temperature; format: physicochemical; conditions: 180° C. for 8 h
Protocol: In order to assess the stability of synthetic acids containing urea, the stability of urea was tested by only considering its exposure to higher temperature. Urea 50% diluted with 50% seawater @ 180° C. for 8 h. […] This confirms that synthetic acids containing urea have decreasing stability when heated above 90° C. and are less desirable to use than compositions according to the present invention which have stability when exposed to temperatures above 200° C.

[2] = in the presence of iron (III)

observation after exposure to high temperature [1]	pH after exposure to high temperature [1]	pH before exposure to high temperature [1]	Molecule	pH of full precipitation [2]
strong ammonia smell	9.44	7.61	Urea [Urea 50% diluted with 50% seawater]	
			Cl [HCl, hydrochloric acid]	approximately 2.5
